Test results published in ChEMBL document CHEMBL4507293 (2021).

Columns and labels:
[1] = target: cAMP and cAMP-inhibited cGMP 3',5'-cyclic phosphodiesterase 10A (Homo sapiens, UniProt Q9Y233); assay: Biochemical assay (PDE10A)
[2] = target: Alpha-2A adrenergic receptor (Homo sapiens) (UniProt P08913); conditions: Compound concentration 10.0 uM
[3] = target: T1, Muscarinic acetylcholine receptor M2 (Homo sapiens) (UniProt P08172); conditions: Compound concentration 10.0 uM
T1 sequence (whole entry): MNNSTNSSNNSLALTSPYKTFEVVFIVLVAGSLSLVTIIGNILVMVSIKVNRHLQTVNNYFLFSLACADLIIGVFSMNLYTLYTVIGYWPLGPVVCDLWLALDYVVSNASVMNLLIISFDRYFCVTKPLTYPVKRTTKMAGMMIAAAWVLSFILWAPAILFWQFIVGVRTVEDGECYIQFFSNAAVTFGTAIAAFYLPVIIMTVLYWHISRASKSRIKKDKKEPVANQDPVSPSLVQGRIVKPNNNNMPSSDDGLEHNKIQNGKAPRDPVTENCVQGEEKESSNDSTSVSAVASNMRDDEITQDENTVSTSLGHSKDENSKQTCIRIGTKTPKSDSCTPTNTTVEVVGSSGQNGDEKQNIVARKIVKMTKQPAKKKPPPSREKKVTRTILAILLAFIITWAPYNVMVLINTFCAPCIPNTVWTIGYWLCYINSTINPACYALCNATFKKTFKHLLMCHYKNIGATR

[4] = target: Purinergic P2Y (Rattus norvegicus) (UniProt O35811+Q9EPX4+P49651+Q63371+P41232+O35881+Q6GUG4); conditions: Compound concentration 10.0 uM
[5] = target: T2, Glutamate NMDA receptor (Rattus norvegicus) (UniProt P35439+Q00959+Q00960+Q00961+Q62645+Q8VHN2+Q9R1M7); conditions: Compound concentration 10.0 uM
[6] = organism: Homo sapiens; assay: Prostanoid, Thromboxane A2 (TP) Eurofins-Panlabs radioligand binding assay; design: ligand concentration 5 nM, non-specific ligand with concentration 1 µM SQ-29548, incubation time 30 min, incubation temperature 25 °C; conditions: Compound concentration 10.0 uM
[7] = target: Cannabinoid receptor 1 (Homo sapiens) (UniProt P21554); conditions: Compound concentration 10.0 uM
[8] = target: Adrenomedullin receptor AM1; CALCRL/RAMP2 (Homo sapiens) (UniProt O60895+Q16602); assay: Adrenomedullin AM1 Eurofins-Panlabs radioligand binding assay; format: protein-complex assay; conditions: Compound concentration 10.0 uM
[9] = organism: Rattus norvegicus; assay: Protein Serine/Threonine Kinase, PKC, Non-Selective Eurofins-Panlabs enzyme assay; conditions: Compound concentration 10.0 uM
[10] = target: Rod cGMP-specific 3',5'-cyclic phosphodiesterase subunit alpha (Homo sapiens, UniProt P16499); assay: Biochemical assay (PDE6A)
[11] = organism: Homo sapiens; assay: Inhibition of Nicotinic Acetylcholine at compound concentration of 10.0 uM in the Eurofins-Panlabs radioligand binding assay (Eurofins_assay_258590); format: protein-complex assay; conditions: Compound concentration 10.0 uM
[12] = target: C-X-C chemokine receptor type 2 (Homo sapiens) (UniProt P25025); assay: Inhibition of Chemokine CXCR2 (IL-8RB) at 10 µM in the Eurofins-Panlabs radioligand binding assay (Eurofins_assay_244500); conditions: Compound concentration 10.0 uM
[13] = target: 5-hydroxytryptamine receptor 5A (Homo sapiens) (UniProt P47898); conditions: Compound concentration 10.0 uM
[14] = target: Caspase-9 (Homo sapiens) (UniProt P55211); assay: Peptidase, CASP9 (Caspase 9) Eurofins-Panlabs enzyme assay; design: substrate with concentration; conditions: Compound concentration 10.0 uM
[15] = target: T3, 5-hydroxytryptamine receptor 2C (Homo sapiens) (UniProt P28335); conditions: Compound concentration 10.0 uM
T3 sequence (whole entry): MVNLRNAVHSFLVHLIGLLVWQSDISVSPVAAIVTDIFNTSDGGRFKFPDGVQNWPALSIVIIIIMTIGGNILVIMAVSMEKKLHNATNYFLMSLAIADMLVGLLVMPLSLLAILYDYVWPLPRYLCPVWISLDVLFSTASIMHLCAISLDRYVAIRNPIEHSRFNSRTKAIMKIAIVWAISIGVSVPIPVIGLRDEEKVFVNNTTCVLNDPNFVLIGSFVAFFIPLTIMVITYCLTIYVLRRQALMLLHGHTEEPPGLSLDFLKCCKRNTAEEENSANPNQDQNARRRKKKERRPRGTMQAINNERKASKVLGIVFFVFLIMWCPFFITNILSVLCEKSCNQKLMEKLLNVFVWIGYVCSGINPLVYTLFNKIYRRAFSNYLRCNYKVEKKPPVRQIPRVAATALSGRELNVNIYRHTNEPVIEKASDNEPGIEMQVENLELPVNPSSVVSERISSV

[16] = organism: Rattus norvegicus; assay: Glutamate, NMDA, Polyamine Eurofins-Panlabs radioligand binding assay; format: protein-complex assay; design: ligand concentration 2 nM; conditions: Compound concentration 10.0 uM
[17] = target: Corticotropin-releasing factor receptor 1 (Homo sapiens) (UniProt P34998); assay: Corticotropin Releasing Factor CRF1 Eurofins-Panlabs radioligand binding assay; conditions: Compound concentration 10.0 uM
[18] = Inhibition of Atrial Natriuretic Factor (ANF) at 10 µM in the Eurofins-Panlabs radioligand binding assay (Eurofins_assay_211000); conditions: Cavia porcellus; Compound concentration 10 uM; Assay protocol publication PMID: 2408776; Detection method Radioligand Binding; Incubation temperature 4 °C; Incubation time 60 min; Ligand Bmax 0.013 pM/ mg protein; Ligand Kd 0.14 nM; Ligand [125I] ANF (rat); Ligand concentration 0.016 nM; Ligand specific binding 78 %; Non-specific ligand with concentration 0.1 µM ANF (rat); Reference compound ANF (rat); Source of …
[19] = target: B1 bradykinin receptor (Homo sapiens) (UniProt P46663); assay: Inhibition of Bradykinin B1 at 10 µM in the Eurofins-Panlabs radioligand binding assay (Eurofins_assay_212510); conditions: Compound concentration 10.0 uM
[20] = target: T2, Glutamate NMDA receptor (Rattus norvegicus); conditions: Compound concentration 10.0 uM; remark: listed apart in the source
[21] = target: Prostaglandin G/H synthase 2 (Homo sapiens) (UniProt P35354); assay: Inhibition of Cyclooxygenase COX-2 at compound concentration of 10.0 uM in the Eurofins-Panlabs enzyme assay (Eurofins_assay_118010); design: substrate with concentration 0.3 uM Arachidonic acid, incubation time 15 min, incubation temperature 37 C; conditions: Compound concentration 10.0 uM
[22] = target: ATP-sensitive inward rectifier potassium channel 11 (Cricetulus griseus) (UniProt A0A3L7HHE1); assay: Inhibition of Potassium Channel [KATP] at 10 µM in the Eurofins-Panlabs radioligand binding assay (Eurofins_assay_265600); conditions: Cricetinae; Compound concentration 10.0 uM
[23] = target: C-C chemokine receptor type 1 (Homo sapiens) (UniProt P32246); assay: Chemokine CCR1 Eurofins-Panlabs radioligand binding assay; conditions: Compound concentration 10.0 uM
[24] = target: Somatostatin receptor type 2 (Homo sapiens) (UniProt P30874); assay: Somatostatin sst2 Eurofins-Panlabs radioligand binding assay; design: ligand concentration 0.03 nM; conditions: Compound concentration 10.0 uM
[25] = target: Alpha-1D adrenergic receptor (Homo sapiens) (UniProt P25100); assay: Inhibition of Adrenergic alpha1D at 10 µM in the Eurofins-Panlabs radioligand binding assay (Eurofins_assay_203400); conditions: Compound concentration 10.0 uM
[26] = target: Vasopressin V1b receptor (Homo sapiens) (UniProt P47901); assay: Inhibition of Vasopressin V1B at 10 µM in the Eurofins-Panlabs radioligand binding assay (Eurofins_assay_287560); design: ligand concentration 1 nM; conditions: Compound concentration 10.0 uM
Chain of Vasopressin V1b receptor (Homo sapiens) (P47901 whole entry): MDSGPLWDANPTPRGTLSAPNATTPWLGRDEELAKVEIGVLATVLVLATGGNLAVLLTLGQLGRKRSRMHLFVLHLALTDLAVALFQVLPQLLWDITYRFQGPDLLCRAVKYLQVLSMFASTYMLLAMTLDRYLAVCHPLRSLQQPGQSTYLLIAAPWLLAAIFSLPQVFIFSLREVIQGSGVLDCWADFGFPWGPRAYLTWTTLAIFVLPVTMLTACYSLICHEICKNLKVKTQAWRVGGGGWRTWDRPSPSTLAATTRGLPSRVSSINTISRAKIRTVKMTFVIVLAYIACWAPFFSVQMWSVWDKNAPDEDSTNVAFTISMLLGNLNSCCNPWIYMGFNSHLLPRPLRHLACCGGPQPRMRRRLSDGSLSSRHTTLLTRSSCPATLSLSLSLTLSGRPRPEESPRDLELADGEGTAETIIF

Chain of Somatostatin receptor type 2 (Homo sapiens) (P30874 whole entry): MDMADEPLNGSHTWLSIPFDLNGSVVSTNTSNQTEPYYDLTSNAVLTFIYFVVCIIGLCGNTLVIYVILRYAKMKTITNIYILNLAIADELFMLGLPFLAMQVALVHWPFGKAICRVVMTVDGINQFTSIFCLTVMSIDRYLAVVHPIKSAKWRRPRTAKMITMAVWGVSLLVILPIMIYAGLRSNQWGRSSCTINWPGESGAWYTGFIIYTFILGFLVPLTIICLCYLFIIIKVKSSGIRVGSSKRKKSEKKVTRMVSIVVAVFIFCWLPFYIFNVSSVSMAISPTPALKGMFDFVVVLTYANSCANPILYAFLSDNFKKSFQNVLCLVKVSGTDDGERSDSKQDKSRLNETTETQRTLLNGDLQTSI
Chain of C-X-C chemokine receptor type 2 (Homo sapiens) (P25025 whole entry): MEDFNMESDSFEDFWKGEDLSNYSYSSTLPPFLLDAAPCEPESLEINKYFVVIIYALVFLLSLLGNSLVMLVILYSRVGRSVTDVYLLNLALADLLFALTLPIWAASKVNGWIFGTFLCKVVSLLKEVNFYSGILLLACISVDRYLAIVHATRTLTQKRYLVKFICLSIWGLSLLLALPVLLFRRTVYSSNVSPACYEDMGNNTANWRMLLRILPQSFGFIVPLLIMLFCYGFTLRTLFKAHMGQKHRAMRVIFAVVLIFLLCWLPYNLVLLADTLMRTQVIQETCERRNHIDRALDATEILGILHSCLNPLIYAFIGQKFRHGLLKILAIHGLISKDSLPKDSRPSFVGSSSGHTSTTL
Chain of B1 bradykinin receptor (Homo sapiens) (P46663 whole entry): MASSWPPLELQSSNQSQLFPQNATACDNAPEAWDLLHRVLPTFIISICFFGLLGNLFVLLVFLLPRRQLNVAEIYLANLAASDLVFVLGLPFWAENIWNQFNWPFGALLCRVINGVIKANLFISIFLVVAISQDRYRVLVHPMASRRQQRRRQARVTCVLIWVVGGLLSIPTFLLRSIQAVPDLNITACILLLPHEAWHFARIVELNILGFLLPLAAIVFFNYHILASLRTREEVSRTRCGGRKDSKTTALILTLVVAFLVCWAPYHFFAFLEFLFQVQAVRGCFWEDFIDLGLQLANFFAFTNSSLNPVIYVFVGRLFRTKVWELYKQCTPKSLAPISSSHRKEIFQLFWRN
Chain of 5-hydroxytryptamine receptor 5A (Homo sapiens) (P47898 whole entry): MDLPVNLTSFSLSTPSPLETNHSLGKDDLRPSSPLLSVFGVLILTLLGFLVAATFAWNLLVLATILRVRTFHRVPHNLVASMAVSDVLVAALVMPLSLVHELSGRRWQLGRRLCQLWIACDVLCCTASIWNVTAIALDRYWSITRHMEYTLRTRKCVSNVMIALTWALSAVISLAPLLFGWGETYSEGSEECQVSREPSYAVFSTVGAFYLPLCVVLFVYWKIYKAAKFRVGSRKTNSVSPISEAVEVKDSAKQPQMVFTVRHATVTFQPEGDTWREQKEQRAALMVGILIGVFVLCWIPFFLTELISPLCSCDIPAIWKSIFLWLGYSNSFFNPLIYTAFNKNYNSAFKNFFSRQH
Chain of cAMP and cAMP-inhibited cGMP 3',5'-cyclic phosphodiesterase 10A (Q9Y233 whole entry): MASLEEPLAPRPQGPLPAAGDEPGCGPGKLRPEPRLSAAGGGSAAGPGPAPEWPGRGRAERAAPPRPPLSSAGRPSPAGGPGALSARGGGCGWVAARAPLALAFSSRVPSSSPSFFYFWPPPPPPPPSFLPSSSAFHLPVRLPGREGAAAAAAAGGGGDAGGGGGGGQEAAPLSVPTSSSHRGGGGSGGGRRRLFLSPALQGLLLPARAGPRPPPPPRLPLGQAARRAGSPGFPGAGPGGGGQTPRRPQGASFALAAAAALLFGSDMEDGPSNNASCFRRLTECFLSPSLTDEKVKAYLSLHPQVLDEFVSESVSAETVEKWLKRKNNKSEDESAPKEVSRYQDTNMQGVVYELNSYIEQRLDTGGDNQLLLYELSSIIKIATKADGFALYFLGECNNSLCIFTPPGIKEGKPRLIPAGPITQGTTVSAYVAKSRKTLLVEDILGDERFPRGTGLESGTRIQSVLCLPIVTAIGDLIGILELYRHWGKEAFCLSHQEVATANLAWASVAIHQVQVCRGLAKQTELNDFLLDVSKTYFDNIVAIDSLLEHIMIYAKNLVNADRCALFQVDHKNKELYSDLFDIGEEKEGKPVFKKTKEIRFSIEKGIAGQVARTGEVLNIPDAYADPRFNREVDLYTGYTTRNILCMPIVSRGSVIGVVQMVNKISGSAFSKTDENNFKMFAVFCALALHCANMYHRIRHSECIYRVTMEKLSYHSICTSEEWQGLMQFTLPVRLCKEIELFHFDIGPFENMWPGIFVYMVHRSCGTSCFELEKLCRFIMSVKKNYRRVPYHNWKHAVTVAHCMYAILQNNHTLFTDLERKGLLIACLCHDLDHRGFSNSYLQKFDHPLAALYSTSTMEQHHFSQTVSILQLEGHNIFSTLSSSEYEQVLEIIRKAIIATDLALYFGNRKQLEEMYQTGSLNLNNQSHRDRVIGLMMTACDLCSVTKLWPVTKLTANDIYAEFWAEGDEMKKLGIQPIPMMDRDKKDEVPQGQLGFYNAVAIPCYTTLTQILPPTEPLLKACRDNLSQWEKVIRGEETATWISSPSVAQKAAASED
Chain of Cannabinoid receptor 1 (Homo sapiens) (P21554 whole entry): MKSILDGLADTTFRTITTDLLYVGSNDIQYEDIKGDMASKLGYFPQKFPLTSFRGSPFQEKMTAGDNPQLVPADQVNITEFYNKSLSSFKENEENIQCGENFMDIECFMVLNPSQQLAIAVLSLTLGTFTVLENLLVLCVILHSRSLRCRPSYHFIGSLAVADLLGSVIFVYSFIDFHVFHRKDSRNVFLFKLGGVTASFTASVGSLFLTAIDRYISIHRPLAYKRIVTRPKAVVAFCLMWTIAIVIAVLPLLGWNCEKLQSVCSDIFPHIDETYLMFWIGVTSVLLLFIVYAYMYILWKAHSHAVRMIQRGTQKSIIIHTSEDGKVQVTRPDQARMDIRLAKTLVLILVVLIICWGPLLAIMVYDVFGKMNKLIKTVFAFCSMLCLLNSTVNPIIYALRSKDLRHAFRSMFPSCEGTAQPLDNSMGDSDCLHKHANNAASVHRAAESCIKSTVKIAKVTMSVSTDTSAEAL
Chain of Caspase-9 (Homo sapiens) (P55211 1-315 limits assumed): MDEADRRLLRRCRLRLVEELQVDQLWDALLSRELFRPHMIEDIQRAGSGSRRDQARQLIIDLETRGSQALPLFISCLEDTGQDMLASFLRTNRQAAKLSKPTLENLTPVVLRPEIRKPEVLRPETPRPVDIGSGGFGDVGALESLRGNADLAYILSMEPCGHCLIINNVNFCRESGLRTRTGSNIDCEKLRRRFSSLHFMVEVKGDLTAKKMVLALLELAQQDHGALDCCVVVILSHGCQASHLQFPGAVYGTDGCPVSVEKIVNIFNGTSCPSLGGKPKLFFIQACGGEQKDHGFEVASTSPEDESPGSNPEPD
Chain of Caspase-9 (Homo sapiens) (P55211 331-416 limits assumed): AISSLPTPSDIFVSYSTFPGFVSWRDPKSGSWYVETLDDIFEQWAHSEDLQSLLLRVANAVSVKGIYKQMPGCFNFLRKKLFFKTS
Chain of Alpha-2A adrenergic receptor (Homo sapiens) (P08913 whole entry): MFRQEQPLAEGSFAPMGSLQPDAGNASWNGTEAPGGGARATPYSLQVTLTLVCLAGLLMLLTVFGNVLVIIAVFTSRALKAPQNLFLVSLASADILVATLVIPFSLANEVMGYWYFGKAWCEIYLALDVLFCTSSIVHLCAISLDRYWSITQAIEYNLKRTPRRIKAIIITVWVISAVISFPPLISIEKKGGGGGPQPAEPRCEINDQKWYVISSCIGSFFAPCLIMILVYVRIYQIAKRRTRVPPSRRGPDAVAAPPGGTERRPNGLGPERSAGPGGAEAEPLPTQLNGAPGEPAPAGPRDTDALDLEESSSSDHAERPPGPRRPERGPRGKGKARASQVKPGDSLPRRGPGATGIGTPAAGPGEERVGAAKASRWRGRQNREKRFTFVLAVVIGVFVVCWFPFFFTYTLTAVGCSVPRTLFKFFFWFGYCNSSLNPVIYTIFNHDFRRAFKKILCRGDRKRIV
Chain of Alpha-1D adrenergic receptor (Homo sapiens) (P25100 whole entry): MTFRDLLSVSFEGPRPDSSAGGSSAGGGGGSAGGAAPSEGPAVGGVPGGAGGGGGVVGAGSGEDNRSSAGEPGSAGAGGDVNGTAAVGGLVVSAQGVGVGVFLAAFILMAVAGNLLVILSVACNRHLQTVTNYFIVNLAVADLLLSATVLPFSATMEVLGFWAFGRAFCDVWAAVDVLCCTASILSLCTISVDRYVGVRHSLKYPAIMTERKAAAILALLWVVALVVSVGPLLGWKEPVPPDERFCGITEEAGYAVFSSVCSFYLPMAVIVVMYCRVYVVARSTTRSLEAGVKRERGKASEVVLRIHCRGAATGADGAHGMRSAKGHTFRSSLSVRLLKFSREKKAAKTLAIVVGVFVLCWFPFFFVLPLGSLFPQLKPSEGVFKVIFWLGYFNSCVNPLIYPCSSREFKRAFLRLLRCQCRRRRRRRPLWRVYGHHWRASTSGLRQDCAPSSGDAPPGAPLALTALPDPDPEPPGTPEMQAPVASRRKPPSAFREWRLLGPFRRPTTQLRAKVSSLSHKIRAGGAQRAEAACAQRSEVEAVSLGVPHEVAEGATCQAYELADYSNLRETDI

CC(C)CC(=O)N1CCc2nc(-c3ccc(Br)cc3)nc(N(C)Cc3ccccc3)c2C1 [THPP-1-NC]
Ki [1]: 522 nM (not active) | inhibition [2]: 48.4%

COCCOc1nc(-c2ccc(Cl)nc2)nc2c1CN(C(=O)c1ncn3ccccc13)CC2 [THPP-1]
inhibition [3]: 5% | inhibition [4]: 5% | inhibition [5]: 0% | inhibition [6]: 8% | inhibition [7]: 21% | inhibition [8]: -6% | inhibition [9]: 12% | Ki [10]: 44 nM | inhibition [11]: -7% | inhibition [12]: -4% | inhibition [13]: -7.27% | inhibition [14]: -5% | inhibition [15]: 22% | inhibition [16]: 11% | inhibition [17]: 12% | inhibition at 10 µM [18]: 0% (not active) | inhibition [19]: 28% | inhibition [20]: 3% | inhibition [21]: -10% | inhibition [22]: -4% | inhibition [23]: 11% | inhibition [24]: 0% | inhibition [25]: 45% | inhibition [26]: 5%
